Results on one compound are retold here after patent USRE40594E1, “Inhibitors of the bitter taste response” (Mount Sinai School of Medicine of New York University, priority 1998, dated 2008).

Experiment [1] relates to bovine taste receptor cell membranes (taste receptors) with transducin. The experiment in a line: G protein activation assay (trypsin sensitivity): activation of transducin by bitter tastant plus taste membranes. It counts as biochemical, Bovine (Bos primigenius). An excerpt:
Taste receptor is contacted with gustducin or transducin and tastant, in the presence or absence of test inhibitor, under conditions suitable for activation of the G-protein present. […] In specific non-limiting embodiments, a subunits of transducin or gustducin may be combined with βγ subunits prior to this step, as set forth above. To the reaction mixture comprising taste receptors and gustducin or transducin, test inhibitor and/or bitter tastant may be added, and the resulting solution incubated to permit interaction of the elements.
In preferred embodiments, activation is assessed by a trypsin digestion assay. […] In a specific, non-limiting example, to perform a trypsin digestion assay according to the invention, TPCK-treated trypsin (1:25 trypsin to total protein in the reaction mixture) may be added, and the digestion may be performed at room temperature for about 15 minutes and stopped by adding soybean trypsin inhibitor (6:1 mol/mol inhibitor to trypsin). […] The separated polypeptides may then be transferred by electro-blotter to a poly (vinylidene difluoride) membrane blocked by the addition of 5% BLOTTO [50 mM Tris-HCI, pH 7.4/100 mM NaCl/5% nonfat dry milk], (30 min). G-protein peptides may then be visualized by binding of antibody directed toward transducin or gustducin, followed, for example, by binding of a detectably labeled secondary antibody. If a horseradish peroxidase-labeled secondary antibody is used, binding may be visualized by developing with bicinchoninic acid staining reagents and exposure to x-ray film.
G Protein Activation Assays. Bovine (Bos primigenius) tongues were collected fresh from a local slaughterhouse and transported on ice to the laboratory. Circumvallate papillae were hand dissected, frozen in liquid nitrogen, and stored at −80° C. until use. […] The pelleted membranes were rinsed twice, resuspended in homogenization buffer lacking protease inhibitors, and further homogenized by 20 passages through a 25-gauge needle. Aliquots were either flash frozen or stored on ice until use. […] The separated polypeptides were transferred by electro-blotter to a poly (vinylidene difluoride) membrane, which was blocked by the addition of 5% BLOTTO [50 mM Tris-HCI, pH 7.4/100 mM NaCl/5% nonfat dry milk], (30 min), then transducin peptides were visualized by binding of transducin antiserum and horseradish peroxidase-labeled goat anti-rabbit secondary antibody, followed by developing with bicinchoninic acid staining reagents from Bio-Rad and exposure to x-ray film.
Chemicals. All bitter tastant and buffer chemicals were of the highest purity available and were purchased either from Sigma or Boehringer Mannheim, unless otherwise noted. […] The rabbit polyclonal antitransducin antibody was a kind gift of Mel Simon and John Watson (California Institute of Technology, Pasadena, Calif.).

Experiment [2] deals with glossopharyngeal nerve responses of C57BL/6J mice. The experiment in a line: Glossopharyngeal nerve recording on lingual stimulation with tastants. It counts as in vivo. As to conditions: inhibitor 0.1 mM. Here is the method: Nerve Recording. Glossopharyngeal nerve responses were recorded from male C57BL/6J mice as previously described (Ninomiya, Y., et al., 1997, Am. J. Physiol. (London) 272:R1002-RI006). Each mouse was anesthetized with intraperitoneal injection of sodium pentobarbital (40-50 mg/kg) and maintained at a surgical level of anesthesis with supplemental injections of the drug. The trachea was cannulated, and the mouse was then fixed in the supine position with a head holder to allow dissection of the glossopharyngeal nerve. The hypoglossal nerve was transected bilaterally to prevent inadvertent tongue movements. The right glossopharyngeal nerve was exposed by removal of the digastric muscle and posterior horn of the hyoid bone. The glossopharyngeal nerve was then dissected free from underlying tissues and cut near its entrance to the posterior foramen lacerum. The entire nerve was placed on a silver wire electrode for whole nerve recording. An indifferent electrode was positioned nearby in the wound. […] Whole nerve responses were integrated by using an RMS-DC converter (Hendrick, Tallahassee, Fla.) with a time constant of 0.5 s. For chemical stimulation of the circumvallate and foliate papillae, an incision was made on each side of the animal's face from the comer of the mouth to just above the angle of the jaw, the papillae were exposed, and their trenches opened via slight tension applied through a small suture sewn in the tip of the tongue. Tastant solutions were delivered to the tongue by gravity flow, and flowed over the tongue for a controlled period. The stability of each preparation was monitored by the periodic application of 0.1 M NH4Cl. A recording was considered to be stable when the 0.1 M NH4Cl response magnitudes at the beginning and end of each stimulation series deviated by no more than 15%. Only responses from stable recordings were used in the data analysis. In the analysis of whole nerve responses, the magnitudes of the integrated response at 20, 25, 30, 35. and 40 s after stimulus onset were measured and averaged to generate tonic responses: the tonic response represents the sustained nerve response to continuous tastant stimulation of taste receptor cells. The relative tonic response for each stimulus was obtained by normalization to the response from 0.1 M NH4Cl (the tonic response of NH4Cl was defined as 1.0). Student's t test was used for statistical analysis.

“Also recorded” adds a separate entry of the source.

In the case of `Nc1nc2c(ncn2[C@@H]2O[C@H](COP(=O)(O)O)[C@@H](O)[C@H]2O)c(=O)[nH]1` [GMP, reference compound], the “inhibition of in vitro activation of transducin (G-protein) by taste membranes plus bitter compounds, summary statement” value in experiment [1] (DEN, QUI and other bitter compounds, concentrations not given) is listed as “did not”. The “inhibition of taste membrane activation of transducin in response to other bitter tastants (than DEN)” value in experiment [1] (concentrations not given) is reported as “did not inhibit”. In experiment [1] (inhibitor 0.25, 0.5, 1.25, 2.5, 5.0 mM, DEN 5.0 mM, shift from 32-kDa to 23-kDa fragments, FIG. 1A/1E), the “inhibition of activation of transducin by DEN plus bovine taste receptor membranes” value is listed as “does not inhibit; also recorded: did not inhibit”. For the same compound, the “inhibition of glossopharyngeal nerve responses to atropine” value in experiment [2] (1.0 mM ATR, FIGS. 4A-C) is “had no effect”. For the same compound, in experiment [2] (1.0 mM SPA, FIGS. 4A-C, 4I (P<0.001)), the “inhibition of glossopharyngeal nerve responses to sparteine” value was “had no effect”. For the same compound, the “inhibition of glossopharyngeal nerve responses to strychnine” value in experiment [2] (1.0 mM STR, FIGS. 4A-C) is “had no effect”. Also, in experiment [2] (5.0 mM DEN, FIGS. 4A-C), the “inhibition of glossopharyngeal nerve responses to DEN” value was “had no effect”. The “inhibition of glossopharyngeal nerve responses to QUI” value in experiment [2] (QUI 0.1 and 1.0 mM, FIGS. 4D-F) is listed as “had no effect”.
